Data taken from ChEMBL document CHEMBL1152878, “N-Hydroxy-1,2-disubstituted-1H-benzimidazol-5-yl acrylamides as novel histone deacetylase inhibitors: design, synthesis, SAR studies, and in vivo antitumor activity” (Bioorg Med Chem Lett, 2009).
Calls of active or inactive are those of the source. The rule behind the calls is not given here.

Tests used:
COLO 205 = assay: Antiproliferative activity against human COLO205 cells after 96 hrs by celltiter assay; format: functional, cell-based; settings: COLO 205, 96 h
[1] = Toxicity in ip dosed athymic mouse assessed as maximum tolerated dose; format: organism-based; settings: in vivo
HCT-116 [2] = assay: Antitumor activity against human HCT116 cells xenografted in athymic mouse assessed as tumor growth inhibition at 50 mg/kg, ip qd for 21 days measured on day 21; format: functional; settings: HCT-116, ip, 504 h, route intraperitoneal, read-out: TGI
Histone deacetylase 1 = Histone deacetylase 1 (Homo sapiens, UniProt Q13547)
Description: Inhibition of recombinant HDAC1 by fluorimetric assay

HCT-116 [3] = assay: Antitumor activity against human HCT116 cells xenografted in athymic mouse assessed as tumor growth inhibition at 60 mg/kg, ip qd for 21 days measured on day 22; format: functional; settings: HCT-116, ip, route intraperitoneal, read-out: TGI
Mus musculus [4] = assay: Toxicity in athymic mouse xenografted with human HCT116 cells at 100 mg/kg, ip qd for 21 days measured on day 12; format: organism-based, HCT-116; design: dose 100 mg/kg, route intraperitoneal; settings: in vivo, 504 h
HCT-116 [5] = assay: Antitumor activity against human HCT116 cells xenografted in athymic mouse assessed as tumor growth inhibition at 100 mg/kg, ip qd for 21 days measured on day 11; format: functional; settings: HCT-116, ip, route intraperitoneal, read-out: TGI
A2780 = assay: Antiproliferative activity against human A2780 cells after 96 hrs by celltiter assay; format: functional, cell-based; settings: A2780, 96 h
in vitro [6] = settings: mouse, liver microsomes
Description: (§1) Metabolic stability in mouse liver microsomes assessed as half life

PC-3 = assay: Antiproliferative activity against human PC3 cells after 96 hrs by celltiter assay; format: functional, cell-based; settings: PC-3, 96 h
in vitro [7] = settings: human, liver microsomes
HCT-116 [8] = assay: Antiproliferative activity against human HCT116 cells after 96 hrs by celltiter assay; format: functional, cell-based; settings: HCT-116, 96 h
[9] = mouse, microsomes
Description: as §1

HCT-116 [10] = assay: Antitumor activity against human HCT116 cells xenografted in athymic mouse assessed as tumor growth inhibition at 75 mg/kg, ip qd for 21 days measured on day 21; format: functional; settings: HCT-116, ip, 504 h, route intraperitoneal, read-out: TGI
Mus musculus [11] = assay: Induction of histone H3 hyperacetylation in human HCT116 cells xenografted athymic mouse; format: functional, organism-based; settings: HCT-116
HCT-116 [12] = assay: Induction of histone H3 hyperacetylation in human HCT116 cells; format: functional, cell-based

Chain of Histone deacetylase 1 (Q13547 whole entry): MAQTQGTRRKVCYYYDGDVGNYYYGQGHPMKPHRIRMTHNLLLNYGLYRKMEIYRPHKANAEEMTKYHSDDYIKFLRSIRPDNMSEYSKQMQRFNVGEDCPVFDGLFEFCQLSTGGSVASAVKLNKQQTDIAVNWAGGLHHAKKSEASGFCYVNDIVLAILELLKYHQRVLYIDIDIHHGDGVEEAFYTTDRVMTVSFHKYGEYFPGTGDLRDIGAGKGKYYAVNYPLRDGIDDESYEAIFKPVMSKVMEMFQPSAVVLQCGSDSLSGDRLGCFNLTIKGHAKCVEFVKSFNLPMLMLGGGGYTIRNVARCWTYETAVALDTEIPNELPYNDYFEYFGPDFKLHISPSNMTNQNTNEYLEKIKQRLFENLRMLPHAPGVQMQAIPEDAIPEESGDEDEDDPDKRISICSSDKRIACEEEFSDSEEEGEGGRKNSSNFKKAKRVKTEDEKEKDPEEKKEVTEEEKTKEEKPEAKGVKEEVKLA

SMILES | IC50 (COLO 205) | IC50 (Histone deacetylase 1) | other results
Cn1c(CCc2ccccc2)nc2cc(/C=C/C(=O)NO)ccc21 | 1200 nM | – | MTD [1]: 50 mg/kg; inhibition in vivo at 50 mg/kg (HCT-116 [2]): 23%
COc1cc(Cn2c(CCc3ccccc3)nc3cc(CCC(=O)NO)ccc32)cc(OC)c1OC | 2400 nM | – | –
Cn1c(CCc2ccccc2)nc2cc(C3CC3C(=O)NO)ccc21 (centres undefined) | – | 1300 nM | –
Nc1ccccc1NC(=O)/C=C/c1ccc2c(c1)nc(CCc1ccccc1)n2Cc1ccccn1 | 5100 nM | > 100000 nM | –
CCN(CC)CCn1c(CCc2ccccc2)nc2cc(/C=C/C(=O)NO)ccc21 | 220 nM | 52 nM | inhibition in vivo at 60 mg/kg (HCT-116 [3]): 12%; MTD [1]: 60 mg/kg
CC(C)Cc1nc2cc(CCC(=O)NO)ccc2n1CCCO | – | > 10000 nM | –
Cl.Cl.O=C(/C=C/c1ccc2c(c1)nc(CCc1ccccc1)n2CCN1CCCC1)NO | – | – | IC50 (A2780): 190 nM; half-life (in vitro [6]): 2.7 min; IC50 (PC-3): 150 nM; half-life (in vitro [7]): > 30 min; IC50 (HCT-116 [8]): 200 nM
Cl.Cn1c(CCc2ccccc2)nc2cc(/C=C/C(=O)NO)ccc21 | – | – | IC50 (A2780): 730 nM; half-life (in vitro [6]): 23 min; IC50 (PC-3): 890 nM; half-life (in vitro [7]): > 30 min; IC50 (HCT-116 [8]): 1300 nM
CCN(CC)CCn1c(CCc2ccccc2)nc2cc(/C=C/C(=O)NO)ccc21.Cl.Cl | – | – | IC50 (A2780): 100 nM; half-life (in vitro [6]): 2.8 min; IC50 (PC-3): 200 nM; half-life (in vitro [7]): 16 min; IC50 (HCT-116 [8]): 240 nM
O=C(/C=C/c1ccc2c(c1)nc(C1CCCCC1)n2CCCO)NO | 31000 nM | – | –
O=C(/C=C/c1ccc2nc(CCc3ccccc3)[nH]c2c1)NO | 4400 nM | 170 nM | –
CN(C)CC(C)(C)Cn1c(CCc2ccccc2)nc2cc(/C=C/C(=O)NO)ccc21.Cl.Cl | – | – | IC50 (A2780): 110 nM; IC50 (PC-3): 180 nM; t1/2 [9]: 1 min; half-life (in vitro [7]): 12 min; IC50 (HCT-116 [8]): 160 nM
O=C(/C=C/c1ccc2c(c1)nc(CCc1ccccc1)n2CCN1CCCCC1)NO | 90 nM | 26 nM | inhibition in vivo at 75 mg/kg (HCT-116 [10]): 32%; MTD [1]: 75 mg/kg
O=C(CCCCCCC(=O)Nc1ccccc1)NO [VORINOSTAT] | – | – | MTD [1]: 200 mg/kg
CC(C)Cc1nc2cc(/C=C/C(=O)NO)ccc2n1CCCO | 26000 nM | 100 nM | –
CCCCCCCCc1nc2cc(/C=C/C(=O)NO)ccc2n1CCCO | 3700 nM | – | –
O=C(/C=C/c1ccc2c(c1)nc(-c1ccsc1)n2CCCO)NO | 31000 nM | – | –
O=C(/C=C/c1ccc2nc(CCc3ccccc3)n(Cc3ccccc3)c2c1)NO | 5400 nM | 1200 nM | –
O=C(/C=C/c1ccc2c(c1)nc(CCc1ccccc1)n2CCN1CCCC1)NO | – | – | Activity (Mus musculus [11]): Active; Activity (HCT-116 [12]): Active
Cl.Cl.O=C(/C=C/c1ccc2c(c1)nc(CCc1ccccc1)n2CCN1CCCCC1)NO | – | – | IC50 (A2780): 31 nM; IC50 (PC-3): 120 nM; t1/2 [9]: 1.3 min; half-life (in vitro [7]): 10 min; IC50 (HCT-116 [8]): 100 nM

The next lines start with results.

IC50 (COLO 205) | IC50 (Histone deacetylase 1) | SMILES | other results
2200 nM | – | COCCCn1c(CCc2ccccc2)nc2cc(/C=C/C(=O)NO)ccc21 | –
> 100000 nM | – | O=C(/C=C/c1ccc2c(c1)nc(CCc1ccccc1)n2CCCn1ccnc1)NO | –
2800 nM | – | O=C(/C=C/c1ccc2c(c1)nc(CCc1ccccc1)n2CCN1CCOCC1)NO | –
610 nM | 310 nM | O=C(/C=C/c1ccc2c(c1)nc(CCc1ccccc1)n2CCCN1CCCC1)NO | –
1500 nM | – | CCn1c(CCc2ccccc2)nc2cc(/C=C/C(=O)NO)ccc21 | –
120 nM | 41 nM | CN(C)CC(C)(C)Cn1c(CCc2ccccc2)nc2cc(/C=C/C(=O)NO)ccc21 | Activity (Mus musculus [4]): Toxic; inhibition in vivo at 100 mg/kg (HCT-116 [5]): 60%
1100 nM | 160 nM | CN(C)CCCCn1c(CCc2ccccc2)nc2cc(/C=C/C(=O)NO)ccc21 | –
26000 nM | – | O=C(NO)c1ccc2c(c1)nc(CCc1ccccc1)n2CCCO | –
4100 nM | – | O=C(/C=C/c1ccc2c(c1)nc(COCc1ccccc1)n2CCCO)NO | –
320 nM | 47 nM | COc1cc(Cn2c(CCc3ccccc3)nc3cc(/C=C/C(=O)NO)ccc32)cc(OC)c1OC | –
11000 nM | – | O=C(/C=C/c1ccc2c(c1)nc(CCc1ccccc1)n2CCCN1CCCC1=O)NO | –
8800 nM | – | O=C(/C=C/c1ccc2c(c1)nc(CCc1ccccc1)n2CCc1ccccc1)NO | –
2000 nM | 190 nM | CN(C)CCCn1c(CCc2ccccc2)nc2cc(/C=C/C(=O)NO)ccc21 | –
1600 nM | 410 nM | O=C(/C=C/c1ccc2c(c1)nc(CCc1ccccc1)n2Cc1ccccc1)NO | –
2300 nM | 170 nM | CCCn1c(CCc2ccccc2)nc2cc(/C=C/C(=O)NO)ccc21 | –
– | 2300 nM | O=C(O)CCn1c(CCc2ccccc2)nc2cc(/C=C/C(=O)NO)ccc21 | –
1900 nM | – | O=C(/C=C/c1ccc2c(c1)nc(CCc1ccccc1)n2CCCN1CCOCC1)NO | –
1700 nM | 80 nM | CC(Cc1nc2cc(/C=C/C(=O)NO)ccc2n1CCCO)c1ccccc1 (centres undefined) | –
880 nM | 250 nM | O=C(/C=C/c1ccc2c(c1)nc(CCc1ccccc1)n2Cc1ccccn1)NO | –
3200 nM | – | O=C(/C=C/c1ccc2c(c1)nc(CCc1ccccc1)n2CCCO)NO | –
